Holding throughout (format): cell-based
In test [1] the test system is A2780 and A2780ADR ovarian cancer cell lines. Kind of test: doxorubicin-DNA adducts by AMS. Conditions: 10 nM or 100 nM DOX 4 h, then 20 hr drug-free. The procedure:
In order to assess the formation and loss of intracellular doxorubicin-DNA adducts, ovarian cancer cells were treated with Dox in culture. For doxorubicin-treated cells, one million ovarian cancer cells were seeded in 60-mm dishes the day before treatment and allowed to attach overnight. Similar to the ARA-C bolus protocol, the ovarian cancer cell lines were treated with a low (10 nM) or a high (100 nM) dose of unlabeled DOX supplemented with 0.8 nM of ^14C-labeled DOX (100 dpm/mL, 0.39-3.7 mCi/mmol specific activity (American Radiolabeled Chemicals, Inc.) for 4 h followed by an additional 20 hr of culturing in drug-free media (FIG. 25C). At 24 hrs, the cells were pelleted and washed. DNA was then isolated from these cells using the Qiamp DNA Blood Kit followed by two phenol and one chloroform extractions to remove intercalated DOX according to a published protocol (19). This protocol left intact covalent DOX-DNA adducts that are known to be formed as a consequence of DOX metabolism. Removal of intercalated DOX is important, since it is noncovalently bound and would otherwise partially diffuse out from the DNA sample causing variable results. Ten micrograms of DNA from each sample was converted to graphite and the ratios of ^14C to total C were measured by AMS. AMS was performed on triplicate DNA samples and the results were converted to drug-DNA adducts per ten million nucleotides.

The subject of test [2] is MV-4-11. Kind of test: CellTiter 96 Aqueous cell proliferation assay. Particulars: Homo sapiens, MV4-11, 72 hr continuous treatment. An excerpt: (§1) Correlation of IC50 to the AML induction drugs Dox and Ara-C were first performed with the adherent bladder cancer cell lines 5637 and 5637R for cytarabine and with the adherent ovarian cancer cell lines A2780 and A2780ADR for doxorubicin. Cell lines 5637 and 5637R (Ara-C resistant) have been described previously (20). A2780 and A2780ADR (doxorubicin resistant) were purchased from Sigma-Aldrich and grown as recommended. IC50 values were obtained by plating 4000 cells per well in 96-well plates the night before treatment, and then allowing the cells to adhere over night. Leukemia cell lines capable of continuous proliferation in suspension and having differential sensitivities to Dox and Ara-C were also obtained for correlation analysis. MV-4-11 (acute monocytic leukemia) and THP-1 (acute monocytic leukemia) human cell lines were purchased from American Type Culture Collection (ATCC, Manassas, Va.). MOLM-13 (acute myeloid leukemia) human cells were purchased from AddexBio (San Diego, Calif.). For leukemia cell lines (suspension cultures), approximately 8,000-11,000 cells were seeded per well in 96-well plates the day of treatment. MV-4-11 cells were grown in IMDM (Iscove's Modified Dulbecco's Media) with 10% FBS, 100 U/ml penicillin, and 100 μg/ml streptomycin. THP-1, A2780, and A2780ADR cells were grown in RPMI-1640 media with 10% FBS, 100 U/ml penicillin, and 100 μg/ml streptomycin. 5637, 5637R, and MOLM-13 cells were grown in RPMI-1640 media with 20% FBS, 100 U/ml penicillin, and 100 μg/ml streptomycin. All cells were cultured at 37° C. in a humidified incubator. The cells were then incubated with increasing doses of cytarabine or doxorubicin continuously for 72 hours. IC50 values were determined using the CellTiter 96 Aqueous Non-Radioactive Cell Proliferation Assay (Promega). […] As shown, 5637 and 5673R have differential sensitivity to cytarabine, while A2780 and A2780ADR have differential sensitivity to doxorubicin. The leukemic suspension cell lines also have differential sensitivity to these two drugs.

In test [3] the test system is THP-1. The test is described as follows: CellTiter 96 Aqueous cell proliferation assay. Conditions: Homo sapiens, 72 hr continuous treatment.
Description: as §1

Test [4] has as its system A2780ADR. The test is described as follows: CellTiter 96 Aqueous cell proliferation assay. Particulars: A2780 ADR, 72 hr continuous treatment.
Description: as §1

Test [5] deals with A2780. Kind of test: CellTiter 96 Aqueous cell proliferation assay. Conditions: Homo sapiens, 72 hr continuous treatment.
Description: as §1

The test system of test [6] is MOLM-13. Kind of test: CellTiter 96 Aqueous cell proliferation assay. Particulars: Homo sapiens, 72 hr continuous treatment.
Description: as §1

For the compound `COc1cccc2c1C(=O)c1c(O)c3c(c(O)c1C2=O)C[C@@](O)(C(=O)CO)C[C@@H]3O[C@H]1C[C@H](N)[C@H](O)[C@H](C)O1` [doxorubicin], in test [1], the “doxorubicin-DNA adducts in resistant A2780ADR compared to sensitive A2780” value is “fewer doxorubicine-DNA adducts”. For the same compound, the IC50 in test [2] was found to be 3 nM; in test [3], 24 nM; in test [4], 12000 nM; in test [5] it was 21 nM; in test [6], 4 nM.
